Patent publication US9469650B2, “Melampomagnolide B derivatives” (BOARD OF TRUSTEES OF THE UNIVERSITY OF ARKANSAS, priority 2013, dated 2016)

Key:
UO-31 = test: panel of 60 human tumor cell lines, growth inhibition (Renal Cancer)
ACHN = test: as above
BT-549 = test: panel of 60 human tumor cell lines, growth inhibition (Breast Cancer)
IGROV1 = test: panel of 60 human tumor cell lines, growth inhibition (Ovarian Cancer); conditions: for Percent Growth: IGROVI
MCF7 = test: panel of 60 human tumor cell lines, growth inhibition (Breast Cancer); conditions: for GI50: MCF7, MCF7; for Percent Growth: MCF7
SK-OV-3 = test: panel of 60 human tumor cell lines, growth inhibition (Ovarian Cancer)
MOLT-4 = test: panel of 60 human tumor cell lines, growth inhibition (Leukemia)
SK-MEL-5 = test: panel of 60 human tumor cell lines, growth inhibition (Melanoma); conditions: for Percent Growth: 8K-MEL-5
MDA-MB-435 = test: as above
HCT-15 = test: panel of 60 human tumor cell lines, growth inhibition (Colon Cancer); conditions: HCT-15

## C=C1C(=O)O[C@H]2[C@H]1CC/C(COC(=O)NCCc1ccccn1)=C\CC[C@@]1(C)O[C@@H]21 [JVM 61, ((1aR,7aS,10aS,10bS,E)-1a-methyl-8-methylene-9-oxo-1a,2,3,6,7,7a,8,9,10a,10b-decahydrooxireno[2′,3′:9,10]cyclodeca[1,2-b]furan-5-yl)methyl-(2-(pyridin-2-yl)ethyl)carbamate]
UO-31; Homo sapiens, UO-31
  GI50: 6.38 µM
UO-31; Homo sapiens, UO-31, read-out: LC50
  CC50: 51.3 µM
UO-31; Homo sapiens, UO-31, read-out: TGI
  IC (TGI): 20.8 µM
UO-31; UO-31, Log10 Concentration −4.0
  Percent Growth: −87%
UO-31; UO-31, Log10 Concentration −5.0
  Percent Growth: 40%
UO-31; UO-31, Log10 Concentration −6.0
  Percent Growth: 89%
UO-31; UO-31, Log10 Concentration −7.0
  Percent Growth: 93%
UO-31; UO-31, Log10 Concentration −8.0
  Percent Growth: 93%
ACHN; Homo sapiens
  GI50: 2.75 µM
ACHN; Homo sapiens, read-out: LC50
  CC50: 34.5 µM
ACHN; Homo sapiens, read-out: TGI
  IC (TGI): 11.3 µM
ACHN; Log10 Concentration −4.0
  Percent Growth: −98%
ACHN; Log10 Concentration −5.0
  Percent Growth: 5%
ACHN; Log10 Concentration −6.0
  Percent Growth: 85%
ACHN; Log10 Concentration −7.0
  Percent Growth: 97%
ACHN; Log10 Concentration −8.0
  Percent Growth: 102%
BT-549; BT-549, Log10 Concentration −4.0
  Percent Growth: −95%
BT-549; BT-549, Log10 Concentration −6.0
  Percent Growth: 85%
BT-549; BT-549, Log10 Concentration −7.0
  Percent Growth: 96%
BT-549; BT-549, Log10 Concentration −8.0
  Percent Growth: 96%
BT-549; Homo sapiens, BT-549
  GI50: 2.6 µM
BT-549; Homo sapiens, BT-549, read-out: LC50
  CC50: 33.6 µM
BT-549; Homo sapiens, BT-549, read-out: TGI
  IC (TGI): 10.1 µM
IGROV1; Homo sapiens, IGROV-1
  GI50: 14.4 µM
IGROV1; Homo sapiens, IGROV-1, read-out: LC50
  CC50: 78.9 µM
IGROV1; Homo sapiens, IGROV-1, read-out: TGI
  IC (TGI): 33.8 µM
IGROV1; Log10 Concentration −4.0
  Percent Growth: −64%
IGROV1; Log10 Concentration −5.0
  Percent Growth: 72%
IGROV1; Log10 Concentration −6.0
  Percent Growth: 102%
IGROV1; Log10 Concentration −7.0
  Percent Growth: 104%
IGROV1; Log10 Concentration −8.0
  Percent Growth: 106%
MCF7; Homo sapiens
  GI50: 2.65 µM
MCF7; Homo sapiens, 5-dose assay
  GI50: 2.85 µM
MCF7; Homo sapiens, MCF7, read-out: LC50
  CC50: 61.4 µM
MCF7; Homo sapiens, MCF7, read-out: TGI
  IC (TGI): 13 µM
MCF7; Log10 Concentration −4.0
  Percent Growth: −66%
MCF7; Log10 Concentration −5.0
  Percent Growth: 8%
MCF7; Log10 Concentration −6.0
  Percent Growth: 85%
MCF7; Log10 Concentration −8.0
  Percent Growth: 91%
SK-OV-3; Homo sapiens, SK-OV-3
  GI50: 26.2 µM
SK-OV-3; Homo sapiens, SK-OV-3, read-out: LC50
  CC50: > 100 µM
SK-OV-3; Homo sapiens, SK-OV-3, read-out: TGI
  IC (TGI): 97.4 µM
SK-OV-3; SK-OV-3, Log10 Concentration −4.0
  Percent Growth: −1%
SK-OV-3; SK-OV-3, Log10 Concentration −5.0
  Percent Growth: 87%
SK-OV-3; SK-OV-3, Log10 Concentration −6.0
  Percent Growth: 103%
SK-OV-3; SK-OV-3, Log10 Concentration −7.0
  Percent Growth: 187%
SK-OV-3; SK-OV-3, Log10 Concentration −8.0
  Percent Growth: 106%
MOLT-4; Homo sapiens, MOLT-4
  GI50: 5.54 µM
MOLT-4; Homo sapiens, MOLT-4, read-out: LC50
  CC50: > 100 µM
MOLT-4; Homo sapiens, MOLT-4, read-out: TGI
  IC (TGI): 25 µM
MOLT-4; MOLT-4, Log10 Concentration −4.0
  Percent Growth: −47%
MOLT-4; MOLT-4, Log10 Concentration −5.0
  Percent Growth: 31%
MOLT-4; MOLT-4, Log10 Concentration −6.0
  Percent Growth: 105%
MOLT-4; MOLT-4, Log10 Concentration −7.0
  Percent Growth: 106%
MOLT-4; MOLT-4, Log10 Concentration −8.0
  Percent Growth: 106%
SK-MEL-5; Log10 Concentration −4.0
  Percent Growth: −94%
SK-MEL-5; Log10 Concentration −5.0
  Percent Growth: 50%
SK-MEL-5; Log10 Concentration −6.0
  Percent Growth: 96%
SK-MEL-5; Log10 Concentration −7.0
  Percent Growth: 95%
SK-MEL-5; Log10 Concentration −8.0
  Percent Growth: 96%
SK-MEL-5; Homo sapiens, SK-MEL-5
  GI50: 9.78 µM
SK-MEL-5; Homo sapiens, SK-MEL-5, read-out: LC50
  CC50: 49.1 µM
SK-MEL-5; Homo sapiens, SK-MEL-5, read-out: TGI
  IC (TGI): 22.1 µM
MDA-MB-435; Homo sapiens, MDA-MB-435
  GI50: 6.01 µM
MDA-MB-435; Homo sapiens, MDA-MB-435, read-out: LC50
  CC50: 82.4 µM
MDA-MB-435; Homo sapiens, MDA-MB-435, read-out: TGI
  IC (TGI): 24.7 µM
MDA-MB-435; MDA-MB-435, Log10 Concentration −4.0
  Percent Growth: −58%
MDA-MB-435; MDA-MB-435, Log10 Concentration −5.0
  Percent Growth: 38%
MDA-MB-435; MDA-MB-435, Log10 Concentration −6.0
  Percent Growth: 94%
MDA-MB-435; MDA-MB-435, Log10 Concentration −7.0
  Percent Growth: 94%
MDA-MB-435; MDA-MB-435, Log10 Concentration −8.0
  Percent Growth: 97%
HCT-15; Log10 Concentration −4.0
  Percent Growth: −81%
HCT-15; Log10 Concentration −5.0
  Percent Growth: 22%
HCT-15; Log10 Concentration −6.0
  Percent Growth: 89%
HCT-15; Log10 Concentration −7.0
  Percent Growth: 97%
HCT-15; Log10 Concentration −8.0
  Percent Growth: 98%
